One may read the melting point as the temperature of the solid-liquid transition.

Compound `c1ccc(CN2CCNc3ccccc32)cc1` displayed a melting point of 44 to 46 °C.
The same measure for `O=C(O)c1cc(F)ccc1-c1ccccc1`: 117 to 119 °C; for `O=Cc1c[nH]c(-c2ccccc2)n1`: 159 to 161 °C; for `Clc1ncnc2c1nnn2-c1ccccc1`: 115 to 117 °C.
In the case of `CN(C)C(=O)c1c[nH]c2ccccc12`, the melting point is 234 to 236 °C.
Compound `Cc1nn(Cc2cccc(Br)c2)c(C)c1C(=O)O` yielded a melting point of 174 to 176 °C.
The same measure for `O=C(Nc1cccc2cnccc12)OCC(F)(F)F`: 181 to 183 °C; for `O=C(O)c1cccc(S(=O)(=O)Nc2ccc(F)cc2)c1`: 140 to 142 °C.
The same measure for `Sc1nc2ccccc2n1CCc1ccccc1`: 177 to 179 °C; for `CSCCC(NC(=O)c1ccc2ccccc2n1)C(=O)O` (configuration not stated): 131 to 133 °C; for `O=C(O)C1(c2cccc(F)c2)CCC1`: 67 to 69 °C.
The same measure for `OC(c1c(Cl)cccc1Cl)C1CCOCC1` (configuration not stated): 106 to 108 °C; for `O=C(NC1CCN(C(=O)CCl)CC1)c1ccccc1`: 155 to 157 °C; for `COc1ccc(NC2=NCCS2)cc1OC`: 88 to 90 °C.
`CC1=NN(c2cccc(C(F)(F)F)c2)C(=O)C1` gave a melting point of 127 to 129 °C.
The same measure for `O=C(O)c1cccc(S(=O)(=O)N2CCCCC2)c1`: 178 to 180 °C.
In the case of `CCOc1ccc(Oc2ccc(S(=O)(=O)Cl)cc2)cc1`, the melting point is 88 to 90 °C.
`Cc1nn(C)c(Cl)c1CC(=O)O` showed a melting point of 169 to 171 °C.
As for `COC(=O)CCOc1ccc(Cl)cc1Cl`, the melting point fell in the range of 35 to 37 °C.
The same measure for `NNC(=O)CCN1CCCC1`: 137 to 139 °C; for `Cc1cccc(-n2nnnc2S)c1`: 156 to 158 °C.
Turning to `COc1cc(NC(=O)CCl)cc(OC)c1OC`, the melting point was in the range of 104 to 106 °C.
The same measure for `COc1ccc(C=O)c(Cl)c1`: 60 to 62 °C; for `O=Cc1ccc(-c2ccc(Cl)cc2[N+](=O)[O-])o1`: 92 to 94 °C.
The compound `ClCc1nc(-c2nc[nH]n2)no1` gave a melting point of 187 to 189 °C.
Consider `CC(NC(N)=O)C(=O)O` (configuration not stated), for which the melting point fell in the range of 171 to 173 °C.
The same measure for `CCOc1ccc(N(C)S(=O)(=O)c2ccc(C)c(C(=O)O)c2)cc1`: 175 to 177 °C; for `Brc1cnc(NCc2ccncc2)nc1`: 122 to 124 °C.
The same measure for `Cc1noc2nc(-c3ccccc3C(F)(F)F)cc(C(=O)O)c12`: 170 to 172 °C.
The same measure for `NC(=O)CNC(=O)c1ccc(O)cc1`: 264 to 266 °C; for `Nc1cc(Cl)c(I)cn1`: 99 to 101 °C; for `CCS(=O)(=O)N1CCC(C(=O)O)(c2ccccc2)CC1`: 203 to 205 °C.
Consider `O=C(O)C1CCN(c2ccc(Cl)nn2)CC1`, for which the melting point was in the range of 186 to 188 °C.
As for `CCOC(=O)c1cnc(SC)nc1N`, the melting point fell in the range of 110 to 120 °C.
The same measure for `COC(=O)C(N)Cc1c[nH]c2ccc(Br)cc12` (configuration not stated): 119 to 121 °C; for `O=C1NCCc2c1ccc(Cl)c2Cl`: 200 to 202 °C; for `CC(=O)c1cnn(Cc2ccccc2)c1`: 61 to 63 °C.
The same measure for `O=C(NCCO)c1ccc(Br)cn1`: 98 to 100 °C.
The same measure for `NS(=O)(=O)c1ccc(OCCSCC(=O)O)cc1`: 196 to 198 °C; for `O=C(O)c1ccc2[nH]c(=O)c(=O)[nH]c2c1`: 250 to 252 °C.
Regarding `COC(=O)C(=O)CC(=O)c1cc(OC)ccc1OC`, the melting point lay within 85 to 90 °C.
The same measure for `NC(=O)c1ccc(N2CCCCC2)c(N)c1`: 168 to 170 °C.
In turn, `Cc1nn(C)c(SCC(=O)O)c1C=O` returned a melting point of 126 to 128 °C.
`Cc1ccc(N)cc1NC(=O)c1ccccc1I` returned a melting point of 190 to 192 °C.
As to `COC(=O)Cn1ncc2c(=O)[nH]cnc21`, the melting point fell in the range of 212 to 214 °C.
Take `O=Cc1ccc(OCC(=O)O)c(Br)c1`: the melting point is 196 to 198 °C.
The same measure for `Clc1nccc2ccn(Cc3ccccc3)c12`: 75 to 77 °C; for `Cn1c(CCl)nc2c1c(=O)[nH]c(=O)n2C`: 269 to 271 °C; for `O=C(O)c1cn(-c2ccccc2)nc1-c1cccnc1`: 238 to 240 °C.
The same measure for `Nc1ccccc1OCC(F)(F)F`: 49 to 51 °C; for `COc1cc(C=O)ccc1OCc1ccc(F)cc1`: 77 to 81 °C; for `CS(=O)(=O)c1nc(C(=O)O)c2ccccn12`: 259 to 261 °C.
The same measure for `Cc1cc(OCC(=O)O)ccc1C(C)C`: 117 to 121 °C.
On to `CCOC(=O)c1ccc(S)nc1`, for which the melting point lay in the range of 135 to 137 °C.
The same measure for `O=C(Nc1nncs1)C1CCCNC1` (configuration not stated): 186 to 188 °C; for `Cc1ccc(OC(C)C(=O)O)c(Br)c1` (configuration not stated): 120 to 122 °C; for `CCc1ccsc1C(N)=O`: 146 to 148 °C.
Regarding `COc1ccc(OC)c(NC(=O)CCl)c1`, the melting point fell in the range of 169 to 171 °C.
On to `Cc1cc(C)c(C)c(OCCC(=O)O)c1`, for which the melting point was 129 to 131 °C.
Take `COC(=O)C(F)c1nc2ccccc2c(=O)[nH]1` (configuration not stated): the melting point was 147 to 160 °C.
`CC1CCCCN1C(=O)c1ccc(N)cc1Cl` (configuration not stated) returned a melting point of 186 to 188 °C.
`O=Cc1cc(O)c(O)c(Cl)c1` returned a melting point of 234 to 236 °C.
`COc1cc(C(=O)O)cc2c1OCCO2` registered a melting point of 203 to 205 °C.
The same measure for `CN1C(=O)CCC(C(N)=O)C1c1cccc(Cl)c1` (configuration not stated): 215 to 217 °C; for `CCCC(=O)Nc1cccc(CN)c1`: 54 to 56 °C.
For `Nc1cc(O)cc(F)c1`, the melting point fell in the range of 159 to 161 °C.
The same measure for `ClCc1nc(-c2cccc(Br)c2)no1`: 47 to 49 °C.
Turning to `O=C(O)CN1CCOc2ccc(Cl)cc21`, the melting point lay in the range of 156 to 158 °C.
Turning to `COc1ccc(-c2ccncc2C=O)cc1`, the melting point is 82 to 84 °C.
The same measure for `CC(C)N1CCN(C2CCNCC2)CC1`: 49 to 51 °C.
The same measure for `Cc1c(C=O)c2ccccn2c1C#N`: 170 to 172 °C; for `Nc1cc(CCCc2cccs2)no1`: 43 to 45 °C; for `O=C(O)C1(c2ccc(Cl)c(Cl)c2)CCC1`: 116 to 118 °C.
The same measure for `NC(=S)CCN1CCCCC1`: 104 to 106 °C.
For the compound `O=C(O)C1CC1c1ccc(OCc2ccccc2)cc1` (configuration not stated), the melting point lay within 147 to 149 °C.
The same measure for `CNc1cc(C(=O)OC)ccc1N`: 79 to 81 °C.
Regarding `Cc1cc(Cl)cc(N)c1I`, the melting point was 48 to 50 °C.
The same measure for `CNc1ncc(I)cn1`: 134 to 136 °C; for `O=C(O)c1cnn2c(-c3ccccc3)ccnc12`: 228 to 230 °C.
The same measure for `Clc1ccc2nnc(C3CCCO3)n2n1` (configuration not stated): 139 to 141 °C.
The same measure for `CON(C)S(=O)(=O)c1cc(N)ccc1Cl`: 88 to 90 °C.
For the compound `CC(NC(=O)OC(C)(C)C)C(=O)Cc1ccccc1` (configuration not stated), the melting point fell in the range of 59 to 61 °C.
In turn, `O=C(O)C(Oc1cccc(F)c1)c1ccccc1` (configuration not stated) showed a melting point of 108 to 110 °C.
The same measure for `COc1ccccc1-c1nnc(S)n1CCc1ccccc1`: 87 to 89 °C; for `O=C(Nc1ccccc1[N+](=O)[O-])N1CCCC1`: 99 to 101 °C; for `CCc1cccc(CC)c1-n1ccnc1S`: 196 to 198 °C.
For `COc1coc(CO)cc1=O`, the melting point is 163 to 165 °C.
The same measure for `COC(=O)c1cc2ccc(Cl)cc2[nH]1`: 181 to 183 °C; for `O=C1CCCC(=O)N1c1ncc(Br)s1`: 139 to 141 °C.
The same measure for `Cn1cnc2cc(C(=O)O)cnc21`: 284 to 286 °C.
The same measure for `CCOCc1ccc(CNC(=O)CCl)cc1`: 86 to 88 °C.
For `CC(=NO)c1ccc(S(=O)(=O)N(C)C)cc1`, the melting point is 108 to 110 °C.
The same measure for `CC(CS(C)(=O)=O)C(=O)O` (configuration not stated): 125 to 127 °C.
In turn, `Cc1ccc(-c2csc(N)n2)s1` returned a melting point of 129 to 131 °C.
The same measure for `Sc1nc(-c2ccccc2)ns1`: 161 to 163 °C.
With `CSc1ccc(C(=O)O)cn1`, the melting point is 182 to 184 °C.
The same measure for `Clc1nc(-c2cccs2)nc2ccccc12`: 123 to 125 °C; for `Cc1ccc(-c2cnnc(N)n2)o1`: 274 to 276 °C.
The same measure for `Cc1cc(Br)cc(Cl)c1C(=O)O`: 154 to 156 °C.
`O=C(O)c1ccc(/C=C/c2ccc3ccccc3n2)cc1` showed a melting point of 263 to 265 °C.
The same measure for `CC(C)(C)n1c(N)nc2ccccc21`: 158 to 160 °C.
Turning to `Nc1ccc2c(C(=O)O)c[nH]c2c1`, the melting point lay within 193 to 195 °C.
The same measure for `COc1ccnc(NN)n1`: 119 to 121 °C; for `O=C(c1ccc(Br)cc1)c1ccco1`: 63 to 65 °C; for `CC(=O)c1ccccc1NS(=O)(=O)c1ccc(C)cc1`: 148 to 150 °C.
In the case of `CC1(C)CCC(N)(C(N)=O)CC1`, the melting point was 149 to 151 °C.
The same measure for `Cc1nnc(NC(=O)CCl)s1`: 230 to 232 °C; for `Nc1ccccc1NC(=O)N1CCCC1`: 127 to 129 °C; for `O=Cc1c(-c2ccccc2)nc2sccn12`: 128 to 130 °C.
The same measure for `Cn1c(=O)[nH]c2ccc(C(=O)O)cc21`: 366 to 368 °C; for `N#Cc1ccc(Cl)cc1NCC1CCOC1` (configuration not stated): 114 to 116 °C.
For `CN(C)C(C#N)c1cc[nH]c1` (configuration not stated), the melting point fell in the range of 71 to 73 °C.
The same measure for `CC(=O)CC(=O)Nc1cccc(C)c1C`: 91 to 93 °C.
As to `O=Cc1ccc(-c2cccs2)cc1F`, the melting point fell in the range of 73 to 75 °C.
The same measure for `Cc1cc(=O)c(C(=O)O)nn1-c1ccccc1Cl`: 215 to 217 °C; for `CC(=O)c1cc(Br)c(F)cc1O`: 77 to 79 °C; for `Cc1cc(C(=O)CCl)c(C)n1-c1ccc(S(N)(=O)=O)cc1`: 241 to 243 °C.
On to `CCCCCCOc1ccc(CO)cc1`, for which the melting point lay within 32 to 34 °C.
Consider `O=C(Nc1ccn[nH]1)OCc1ccccc1`, for which the melting point was 194 to 196 °C.
The same measure for `CC(C)C1CCNC(=O)CC1` (configuration not stated): 76 to 78 °C; for `CC(=O)c1c(C)oc2nc(Br)nn12`: 118 to 120 °C; for `O=C(CCl)c1ccc(Br)cc1`: 119 to 121 °C.

The values are drawn from a melting point compilation (Tetko et al.).
